The target of assay [1] is T1, GST-ΔPH-Akt1 (Homo sapiens, UniProt P31749).
T1 construct: named GST-deltaPH-Akt1; 107-480aa; cloned in the pAcGl vector; GST (N); made in house; host or cells: SF9 insect cells (baculovirus vector pAcG1), co-expressed with PDK1
The experiment in a line: Biochemical ΔPH Akt1 assay (flashplate, 33P incorporation into histone 2B). Particulars: 100 nM ATP, histone 2B substrate; read-out: ΔPHAkt1 inhibition: IC50. The method in brief:
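The enzyme was GST-fused human Akt1 lacking the PH domain (aa 107–480), co-expressed with PDK1 in Sf9 cells, at 100 ng/well, with 100 ng/well histone 2B substrate and 100 nM ATP including 33P-ATP. 33P incorporation was counted on scintillant-coated flashplates.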

Assay [2] has as its target T2, full-length Akt1 (active) (Homo sapiens, UniProt P31749).
T2 construct: recombinant full-length human Akt1, containing N-terminal His6 tag; His6 (N); GST (N); purchased Upstate, UK #14-276; host or cells: baculovirus infected Sf21 insect cells
Put plainly: Biochemical Akt1 assay (full-length Akt1 active, flashplate, Crosstide). Particulars: 100 nM ATP, Crosstide substrate; read-out: Akt1 inhibition (full-length Akt1, active): IC50. The source says:
For the biochemical Akt1 assay recombinant full-length human Akt1, containing N-terminal His6 tag is cloned and expressed in baculovirus infected Sf21 insect cells. Akt1 is activated with GST-MAPKAP-K2 and PDK1, and repurified on Ni2+/NTA-agrose and glutathioneagarose (Upstate, UK; #14-276).
In order to study the inhibition of Akt1 (full-length version) according to the invention, a flashplate-based assay has been developed.
The full-length Akt1 assay is a biochemical assay using Akt1 N-terminally fused to GST and co-expressed with PDKI in insect cells. The Akt1 assay is run in 96 well plates by incubating 500 ng/well GST-Akt1, 1 μM Crosstide (N-terminally biotinylated synthetic peptide (KGSGSGRPRTSSFAEG) Upstate, #12-385) as substrate, 10 μl of test compound (test compounds were dissolved as 10 mM solutions in dimethylsulfoxide (DMSO) and subsequently diluted) and 100 nM ATP (including ^33P-ATP) in 100 μl of reaction buffer (50 mM HEPES, pH7,5; 3 mM MgCl2; 3 mM MnCl2; 3 μM Na-Orthovanadat; 1 mM DTT; 1 μg/ml PEG8000) for 60 minutes at 30° C. in 96 well microtiter plates. The reactions are terminated by adding 100 μl stopping buffer (5M NaCl, 35 mM EDTA pH 8.0) for 5 minutes. 190μl of the reaction mixture are transferred into streptavidin-coated Flashplates (Perkin Elmer, #SMP-103) and incubated for further 30 minutes at room temperature. The plates are washed 3 times by using washing buffer (0.9% NaCl). Relying on the incorporation of ^33P into the peptide substrate crosstide, the detection is based on the specific binding of the biotinylated peptide to the streptavidin-coated surface of scintillator-coated flash plates (NEN, USA; #SMP-103). This phosphorylation is measured by counting the plate for 60 sec. using a plate reader (Wallac Microbeta; Perkin Elmer, USA).

Assay [3] has as its system MCF7 cells. Put plainly: Cellular proliferation/cytotoxicity assay (Alamar Blue), MCF7. Particulars: Homo sapiens, MCF7, 48 h, read-out: Anti-proliferative/cytotoxic activity: IC50 MCF7.

T2 sequence (P31749 whole entry): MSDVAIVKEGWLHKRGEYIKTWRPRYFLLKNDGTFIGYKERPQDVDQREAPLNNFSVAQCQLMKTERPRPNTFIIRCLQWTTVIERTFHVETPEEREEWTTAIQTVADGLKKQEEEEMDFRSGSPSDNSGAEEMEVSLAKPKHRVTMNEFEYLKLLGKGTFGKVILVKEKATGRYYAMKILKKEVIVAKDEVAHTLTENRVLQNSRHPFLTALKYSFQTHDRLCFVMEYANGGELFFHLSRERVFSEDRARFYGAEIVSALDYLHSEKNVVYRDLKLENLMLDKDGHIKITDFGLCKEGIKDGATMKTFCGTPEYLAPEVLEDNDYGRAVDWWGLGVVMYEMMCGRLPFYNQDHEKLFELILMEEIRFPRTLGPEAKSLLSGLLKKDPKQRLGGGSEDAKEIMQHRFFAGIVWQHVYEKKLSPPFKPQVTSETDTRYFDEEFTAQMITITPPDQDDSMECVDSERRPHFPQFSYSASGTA
T1 sequence (P31749 107-480, stated change not applied): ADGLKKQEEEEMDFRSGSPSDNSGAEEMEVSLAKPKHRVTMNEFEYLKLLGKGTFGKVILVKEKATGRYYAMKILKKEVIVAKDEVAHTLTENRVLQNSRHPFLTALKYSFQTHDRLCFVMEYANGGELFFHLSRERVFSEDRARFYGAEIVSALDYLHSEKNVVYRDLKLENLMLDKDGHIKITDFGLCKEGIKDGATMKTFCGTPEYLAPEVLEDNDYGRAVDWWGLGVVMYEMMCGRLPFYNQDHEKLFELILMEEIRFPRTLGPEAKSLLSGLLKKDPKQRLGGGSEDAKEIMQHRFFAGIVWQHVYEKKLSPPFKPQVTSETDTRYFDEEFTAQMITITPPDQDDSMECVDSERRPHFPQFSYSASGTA

In the case of `COc1cccc(-c2ccc(-c3cc4c(Br)cnn4c(Nc4ccc(NC(=O)c5ccc(CN)cc5)cc4)n3)cc2)c1` [Example 87, 4-Aminomethyl-N-{4-[3-bromo-5-(3′-methoxy-biphenyl-4-yl)-pyrazolo[1,5-c]pyrimidin-7-ylamino]-phenyl}-benzamide], the IC50 in assay [1] was no more than 1.75 µM; in assay [2], no more than 4.03 µM; in assay [3], no more than 16.9 µM.

In the case of `COc1cccc(-c2ccc(-c3cc4ccnn4c(Nc4ccc(NC(=O)c5ccc(CN)cc5)cc4)n3)cc2)c1` [Example 59, 4-Aminomethyl-N-{4-[5-(3′-methoxy-biphenyl-4-yl)-pyrazolo[1,5-c]pyrimidin-7-ylamino]-phenyl}-benzamide], the IC50 was no more than 1.75 µM in assay [1], no more than 4.03 µM in assay [2] and no more than 16.9 µM in assay [3].

Regarding `O=C(Nc1cccc(Nc2nc(-c3cccc4c3oc3ccccc34)cc3ccnn23)c1)c1ccc2c(c1)CCNC2` [Example 63, 1,2,3,4-Tetrahydro-isoquinoline-6-carboxylic acid [3-(5-dibenzofuran-4-yl-pyrazolo[1,5-c]pyrimidin-7-ylamino)-phenyl]-amide], the figures for the IC50 in assay [1], in assay [2] and in assay [3] were no more than 1.75 µM, no more than 4.03 µM and no more than 16.9 µM, respectively.

On to `NCCCC(=O)Nc1ccc(Nc2nc(-c3cccc4c3oc3ccccc34)cc3ccnn23)cc1` [Example 24, 4-Amino-N-[4-(5-dibenzofuran-4-yl-pyrazolo[1,5-c]pyrimidin-7-ylamino)-phenyl]-butyramide], for which the IC50 in assay [1] was no more than 1.75 µM; in assay [2], no more than 4.03 µM; in assay [3] it was no more than 16.9 µM.

The values are drawn from patent publication US7745446B2, “Pyrazolo[1,5-c]pyrimidines” (Bayer Schering Pharma Aktiengesellschaft, priority 2004, dated 2010).
